Test results taken from patent US20250099434A1, “METHODS OF TREATING AMYLOID RELATED BRAIN DISORDERS USING NOVEL COMPOUNDS AND ANTIBODIES” (T3D Therapeutics, Inc., priority 2022, published 2025).

How the values were obtained:
[1] = test system: patients with mild-to-moderate Alzheimer's disease (AD); assay: BOLD fMRI (task-free fMRI) clinical study, baseline vs end of treatment; format: in vivo, human
Experimental: The majority were non-Hispanic and of white origin.
T3D Therapeutics completed an exploratory analysis of the Phase 2A non-placebo-controlled feasibility study to assess the therapeutic effects of T3D959 in patients with mild-to-moderate Alzheimer's disease (AD) via task-free functional magnetic resonance imaging (tf-fMRI). A total of 34 subjects participated and were split into 4 groups that took different amounts of T3D959 over the course of the study: 3 mg, 10 mg, 30 mg, and 90 mg. A baseline tf-fMRI scan was obtained prior to treatment and another two weeks after. Sixteen tf-fMRI metrics were calculated at each time point and summarized for each patient group to assess the therapeutic effect of T3D959.
The T3D clinical trial investigated the following metrics: • 1. Goodness of Fit of the subject's default mode network regions compared to those of an elderly control group. • 2. The correlation strength between the hippocampus and precuneus. • 3. The global efficiency calculated from 11 pre-defined default mode network regions. • 4. The global efficiency calculated from 90 pre-defined cerebral regions based on the automated anatomical labeling atlas. • 5. The amplitude of low frequency fluctuations (ALFF) and […] of low frequency fluctuations (fALFF) from the right posterior cingulate cortex (PCC) and precuneus (PreC) in the low frequency oscillations (LFO) range (0.01-0.08 Hz). • 6. The ALFF and fALFF from the left PCC and PreC in the LFO range. • 7. The regional homogeneity (ReHo) in the right PCC and PreC. • 8. The ReHo in the left PCC and PreC. • 9. […] The ALFF and fALFF from the left IPL in the LFO range. • 11. The ReHo in the right IPL • 12. The ReHo in the left IPL.

human PPARα = target: T1, human PPARα (Homo sapiens, UniProt Q07869); assay: Human PPAR activation, transient transfection in CV-1 cells (alpha subtype); format: cell-based
T1 construct: expressed in transfected cells; host or cells: CV-1 cells
T1 sequence (Q07869 1-468): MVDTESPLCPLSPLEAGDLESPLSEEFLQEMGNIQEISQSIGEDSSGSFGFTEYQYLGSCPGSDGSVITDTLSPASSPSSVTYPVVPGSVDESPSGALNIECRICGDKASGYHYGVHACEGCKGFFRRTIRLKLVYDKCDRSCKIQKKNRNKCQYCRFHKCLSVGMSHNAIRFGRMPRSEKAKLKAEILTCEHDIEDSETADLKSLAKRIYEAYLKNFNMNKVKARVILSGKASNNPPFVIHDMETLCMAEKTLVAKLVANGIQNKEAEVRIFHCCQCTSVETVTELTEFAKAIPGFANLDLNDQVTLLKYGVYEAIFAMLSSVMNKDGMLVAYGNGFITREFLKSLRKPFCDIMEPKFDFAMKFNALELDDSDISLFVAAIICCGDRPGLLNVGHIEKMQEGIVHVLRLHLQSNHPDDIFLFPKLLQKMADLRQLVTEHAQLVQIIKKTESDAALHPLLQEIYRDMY
Description: PPAR receptor agonist activity may be determined by conventional screening methods known to the skilled in the art. For example, methods described in U.S. Patent Application Publication No. 2007/0054907, 2008/0262047 and U.S. Pat. No. 7,314,879, which are incorporated by reference in their entireties.
The table summarize the results of studies performed in transfected CV-1 cells with three different lots of Compound of Example 11. […].

P-glycoprotein (P-gp) = P-glycoprotein (P-gp) (Homo sapiens, UniProt P08183); assay: P-gp substrate assessment (Caco-2, verapamil)
Caco-2 = Caco-2 permeability with and without P-gp inhibitor verapamil; conditions: absence of a P-gp inhibitor

Chain of P-glycoprotein (P-gp) (P08183 whole entry): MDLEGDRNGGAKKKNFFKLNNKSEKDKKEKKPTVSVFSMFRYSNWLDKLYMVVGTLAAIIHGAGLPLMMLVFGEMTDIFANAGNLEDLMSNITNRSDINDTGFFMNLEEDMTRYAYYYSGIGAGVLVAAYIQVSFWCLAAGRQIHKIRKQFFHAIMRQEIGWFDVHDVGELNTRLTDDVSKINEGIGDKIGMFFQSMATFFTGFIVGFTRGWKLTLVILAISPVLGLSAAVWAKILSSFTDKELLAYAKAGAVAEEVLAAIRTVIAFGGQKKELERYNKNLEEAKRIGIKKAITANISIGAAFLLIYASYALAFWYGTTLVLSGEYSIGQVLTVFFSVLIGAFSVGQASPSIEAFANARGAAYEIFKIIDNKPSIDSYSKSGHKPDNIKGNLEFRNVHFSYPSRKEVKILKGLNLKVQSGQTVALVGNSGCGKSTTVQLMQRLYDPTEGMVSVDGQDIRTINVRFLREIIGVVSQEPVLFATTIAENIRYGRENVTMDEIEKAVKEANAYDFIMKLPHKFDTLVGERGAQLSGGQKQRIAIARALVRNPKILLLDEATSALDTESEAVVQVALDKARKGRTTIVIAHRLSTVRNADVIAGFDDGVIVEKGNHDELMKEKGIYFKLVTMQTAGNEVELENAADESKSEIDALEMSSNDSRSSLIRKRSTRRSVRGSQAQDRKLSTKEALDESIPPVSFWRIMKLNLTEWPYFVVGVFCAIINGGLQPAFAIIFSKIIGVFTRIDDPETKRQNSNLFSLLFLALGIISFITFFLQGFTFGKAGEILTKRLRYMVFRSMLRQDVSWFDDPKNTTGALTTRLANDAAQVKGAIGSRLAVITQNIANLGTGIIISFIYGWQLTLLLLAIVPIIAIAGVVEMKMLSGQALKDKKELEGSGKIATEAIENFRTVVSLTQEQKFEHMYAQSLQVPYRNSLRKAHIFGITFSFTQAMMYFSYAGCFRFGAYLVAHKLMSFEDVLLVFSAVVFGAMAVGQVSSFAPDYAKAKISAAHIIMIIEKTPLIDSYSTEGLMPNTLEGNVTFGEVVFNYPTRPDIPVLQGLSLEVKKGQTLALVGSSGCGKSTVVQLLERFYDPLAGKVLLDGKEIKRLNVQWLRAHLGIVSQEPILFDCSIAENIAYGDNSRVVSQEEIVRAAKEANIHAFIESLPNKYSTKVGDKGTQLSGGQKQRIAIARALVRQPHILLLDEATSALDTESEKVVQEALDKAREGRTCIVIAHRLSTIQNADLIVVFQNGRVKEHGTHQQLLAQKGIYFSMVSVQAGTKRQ

SMILES: CCc1oc(-c2ccc(OC)cc2)nc1CCOc1ccc2c(c1)CC[C@H]2CC(=O)[O-].[Na+] [Example 11, Sodium (S)-2-(5-(2-(5-ethyl-2-(4-methoxyphenyl)oxazol-4-yl)ethoxy)-2,3-dihydro-1H-inden-1-yl)acetate]
- ALFF-IIPL, Change from Baseline EOT, Mean ([1]; 3 mg): −0.0635
- ALFF-IIPL, Change from Baseline EOT, Median ([1]; 3 mg): −0.0393
- ALFF-rIPL, Change from Baseline EOT, Mean ([1]; 3 mg): −0.0493
- ALFF-rIPL, Change from Baseline EOT, Median ([1]; 3 mg): −0.0587
- ReHo-IIPL, Change from Baseline EOT, Mean ([1]; 3 mg): −0.0694
- ReHo-IIPL, Change from Baseline EOT, Median ([1]; 3 mg): −0.0822
- ReHo-IPPC-PreC, Change from Baseline EOT, Mean ([1]; 3 mg): −0.0665
- ReHo-IPPC-PreC, Change from Baseline EOT, Median ([1]; 3 mg): −0.0428
- ReHo-rIPL, Change from Baseline EOT, Mean ([1]; 3 mg): −0.0694
- ReHo-rIPL, Change from Baseline EOT, Median ([1]; 3 mg): −0.0822
- ReHo-rPPC-Prec, Change from Baseline EOT, Mean ([1]; 3 mg): −0.0390
- ReHo-rPPC-Prec, Change from Baseline EOT, Median ([1]; 3 mg): −0.0081
- fALFF-IIPL, Change from Baseline EOT, Mean ([1]; 3 mg): −0.0296
- fALFF-IIPL, Change from Baseline EOT, Median ([1]; 3 mg): −0.0311
- fALFF-IPPC-PreC, Change from Baseline EOT, Mean ([1]; 3 mg): 0.0121
- fALFF-IPPC-PreC, Change from Baseline EOT, Median ([1]; 3 mg): 0.0019
- fALFF-rIPL, Change from Baseline EOT, Mean ([1]; 3 mg): −0.0342
- fALFF-rIPL, Change from Baseline EOT, Median ([1]; 3 mg): −0.0327
- fALFF-rPPC-PreC, Change from Baseline EOT, Mean ([1]; 3 mg): −0.0080
- fALFF-rPPC-PreC, Change from Baseline EOT, Median ([1]; 3 mg): −0.0229
- ALFF-IIPL, Change from Baseline EOT, Mean ([1]; 10 mg): 0.0104
- ALFF-IIPL, Change from Baseline EOT, Median ([1]; 10 mg): 0.0273
- ALFF-rIPL, Change from Baseline EOT, Mean ([1]; 10 mg): −0.0276
- ALFF-rIPL, Change from Baseline EOT, Median ([1]; 10 mg): −0.0278
- ReHo-IIPL, Change from Baseline EOT, Mean ([1]; 10 mg): 0.0147
- ReHo-IIPL, Change from Baseline EOT, Median ([1]; 10 mg): −0.0201
- ReHo-IPPC-PreC, Change from Baseline EOT, Mean ([1]; 10 mg): 0.0237
- ReHo-IPPC-PreC, Change from Baseline EOT, Median ([1]; 10 mg): 0.0523
- ReHo-rIPL, Change from Baseline EOT, Mean ([1]; 10 mg): 0.0147
- ReHo-rIPL, Change from Baseline EOT, Median ([1]; 10 mg): −0.0201
- ReHo-rPPC-Prec, Change from Baseline EOT, Mean ([1]; 10 mg): −0.0663
- ReHo-rPPC-Prec, Change from Baseline EOT, Median ([1]; 10 mg): 0.0153
- fALFF-IIPL, Change from Baseline EOT, Mean ([1]; 10 mg): 0.0164
- fALFF-IIPL, Change from Baseline EOT, Median ([1]; 10 mg): 0.0097
- fALFF-IPPC-PreC, Change from Baseline EOT, Mean ([1]; 10 mg): 0.0068
- fALFF-IPPC-PreC, Change from Baseline EOT, Median ([1]; 10 mg): −0.0068
- fALFF-rIPL, Change from Baseline EOT, Mean ([1]; 10 mg): 0.0061
- fALFF-rIPL, Change from Baseline EOT, Median ([1]; 10 mg): 0.0096
- fALFF-rPPC-PreC, Change from Baseline EOT, Mean ([1]; 10 mg): 0.0084
- fALFF-rPPC-PreC, Change from Baseline EOT, Median ([1]; 10 mg): −0.0028
- ALFF-IIPL, Change from Baseline EOT, Mean ([1]; 30 mg): −0.0102
- ALFF-IIPL, Change from Baseline EOT, Median ([1]; 30 mg): −0.0031
- ALFF-rIPL, Change from Baseline EOT, Mean ([1]; 30 mg): 0.0346
- ALFF-rIPL, Change from Baseline EOT, Median ([1]; 30 mg): 0.0332
- ReHo-IIPL, Change from Baseline EOT, Mean ([1]; 30 mg): −0.0249
- ReHo-IIPL, Change from Baseline EOT, Median ([1]; 30 mg): −0.0135
- ReHo-IPPC-PreC, Change from Baseline EOT, Mean ([1]; 30 mg): −0.0369
- ReHo-IPPC-PreC, Change from Baseline EOT, Median ([1]; 30 mg): −0.0398
- ReHo-rIPL, Change from Baseline EOT, Mean ([1]; 30 mg): −0.0249
- ReHo-rIPL, Change from Baseline EOT, Median ([1]; 30 mg): −0.0135
- ReHo-rPPC-Prec, Change from Baseline EOT, Mean ([1]; 30 mg): −0.0895
- ReHo-rPPC-Prec, Change from Baseline EOT, Median ([1]; 30 mg): −0.1176
- fALFF-IIPL, Change from Baseline EOT, Mean ([1]; 30 mg): −0.0107
- fALFF-IIPL, Change from Baseline EOT, Median ([1]; 30 mg): −0.0034
- fALFF-IPPC-PreC, Change from Baseline EOT, Mean ([1]; 30 mg): −0.0132
- fALFF-IPPC-PreC, Change from Baseline EOT, Median ([1]; 30 mg): −0.0141
- fALFF-rIPL, Change from Baseline EOT, Mean ([1]; 30 mg): 0.0023
- fALFF-rIPL, Change from Baseline EOT, Median ([1]; 30 mg): 0.0001
- fALFF-rPPC-PreC, Change from Baseline EOT, Mean ([1]; 30 mg): −0.0007
- fALFF-rPPC-PreC, Change from Baseline EOT, Median ([1]; 30 mg): −0.0133
- ALFF-IIPL, Change from Baseline EOT, Mean ([1]; 90 mg): −0.0401
- ALFF-IIPL, Change from Baseline EOT, Median ([1]; 90 mg): −0.0560
- ALFF-rIPL, Change from Baseline EOT, Mean ([1]; 90 mg): −0.1089
- ALFF-rIPL, Change from Baseline EOT, Median ([1]; 90 mg): −0.0671
- ReHo-IIPL, Change from Baseline EOT, Mean ([1]; 90 mg): −0.0062
- ReHo-IIPL, Change from Baseline EOT, Median ([1]; 90 mg): −0.0121
- ReHo-IPPC-PreC, Change from Baseline EOT, Mean ([1]; 90 mg): 0.0194
- ReHo-IPPC-PreC, Change from Baseline EOT, Median ([1]; 90 mg): 0.0566
- ReHo-rIPL, Change from Baseline EOT, Mean ([1]; 90 mg): −0.0062
- ReHo-rIPL, Change from Baseline EOT, Median ([1]; 90 mg): −0.0121
- ReHo-rPPC-Prec, Change from Baseline EOT, Mean ([1]; 90 mg): −0.0041
- ReHo-rPPC-Prec, Change from Baseline EOT, Median ([1]; 90 mg): 0.0177
- fALFF-IIPL, Change from Baseline EOT, Mean ([1]; 90 mg): −0.0350
- fALFF-IIPL, Change from Baseline EOT, Median ([1]; 90 mg): −0.0211
- fALFF-IPPC-PreC, Change from Baseline EOT, Mean ([1]; 90 mg): −0.0167
- fALFF-IPPC-PreC, Change from Baseline EOT, Median ([1]; 90 mg): −0.0166
- fALFF-rIPL, Change from Baseline EOT, Mean ([1]; 90 mg): −0.0395
- fALFF-rIPL, Change from Baseline EOT, Median ([1]; 90 mg): −0.0313
- fALFF-rPPC-PreC, Change from Baseline EOT, Mean ([1]; 90 mg): −0.0118
- fALFF-rPPC-PreC, Change from Baseline EOT, Median ([1]; 90 mg): 0.0039
- Peak effect PPARα (human PPARα): 1.87
- maximal response, human alpha subtype (human PPARα): significantly reduced maximal response
- substrate for P-gp (P-glycoprotein (P-gp)): not a substrate for P-gp
- Papparent (Caco-2): 114.4 ×10⁻⁶ cm/s
